We go through eight molecules from PMC7248907, “Naphthoquinones as Covalent Reversible Inhibitors of Cysteine Proteases—Studies on Inhibition Mechanism and Kinetics” (Molecules, 2020).

Data set [1] has as its target T1, cathepsin B (Homo sapiens, UniProt P07858).
T1 construct: purchased Calbiochem, Merck Millipore
Briefly: Fluorometric cathepsin B inhibition assay (Cbz-Phe-Arg-AMC). It counts as biochemical. The note with it: at 20 µM inhibitor; read-out: Cath. B % inh.

Data set [2] concerns the target T2, rhodesain (Trypanosoma brucei rhodesiense, UniProt Q95PM0).
T2 construct: made in house; host or cells: Pichia pastoris
As to the kind of experiment: biochemical. It counts as biochemical. The settings on record: for fold improvement of rhodesain inhibition, acid compared to benzyl ester: 3 compared to 1, 4 compared to 2; for Rhod. t1/2: half-life of final complex, 0.693/k4; for Rhod. ΔEreac: reaction energy of second inhibition step from k3/k4; for Rhod. k3 / Rhod. k4: second inhibition step; for Rhod. k3: forward rate; for Rhod. k4: off-rate; for inhibition at 20 µM: at 20 µM inhibitor, read-out: Rhod. % inh.

Data set [3] addresses T3, NS3/NS2B protease of the Dengue virus (DENV PR) (Dengue virus type 2, UniProt P29990).
T3 construct: the NS3/NS2B protease of the Dengue virus (DENV PR)
Briefly: Fluorometric DENV NS2B/NS3 protease assay (Boc-Gly-Arg-Arg-AMC). The note with it: at 20 µM inhibitor; read-out: DENV PR % inh. It counts as biochemical.

Data set [4] deals with T2, rhodesain. As to the kind of experiment: Dilution assay (reversibility), rhodesain. Type of data set: biochemical. The settings on record: 5×IC50, 50-fold dilution; data not shown.
Data set [5] concerns the target T2, rhodesain. As to the kind of experiment: Hydrolysis assay LC/MS (ester hydrolysis by rhodesain). It counts as biochemical. The settings on record: 24 h incubation with rhodesain, 25 °C. On the procedure:
As reported previously for benzyl esters of the tested dipeptide sequence, we raised the hypothesis also in the current case, that the observed ester cleavage of the rhodesain–inhibitor adduct (Figure 5) might occur by rhodesain-catalyzed enzymatic hydrolysis. To verify this hypothesis, we incubated compounds 1, 2 (benzyl esters), compound 6 (methyl ester) and compound 8 (tert-butyl ester) for 24 h with rhodesain. The reaction mixtures were subsequently analyzed by LC–MS.
In fact, we found ester hydrolysis for the benzyl and methyl esters, but not for the tert-butyl ester. […] The unconverted ester 1 was eluted at tR = 3.19 min. Upon incubation with rhodesain, a peak at tR = 1.03 min was observed matching the retention time of the reference acid 3. […]
triplicates at different time points (0, 30, 60, 120 min) and reactions were initiated by the addition of […]
Hydrolysis assay – LC/MS:
Hydrolysis assays were performed as described previously.[12] To a solution of rhodesain […]
2 mM DTT) 1 μL of either cpd. 1, 2, 6 or 8 in DMSO (20 mM) was added and the mixtures was incubated for 24 h at 25 °C. As negative reaction control, 99 μL assay buffer was treated with pure cpd. 1, 2, 6 or 8 in DMSO (20 mM) without rhodesain. […]
(§1) (20 mM) was added and the absorbance was monitored for 2 h at 25 °C with a Tecan Spark 10M (λabs: […]

For data set [6], the target named is T4, cathepsin L (Homo sapiens, UniProt P07711). Briefly: Fluorometric cathepsin L inhibition assay (Cbz-Phe-Arg-AMC). It counts as biochemical. Also on record: purchased Calbiochem, Merck Millipore. The note with it: for Cath. L t1/2: half-life of final complex, 0.693/k4; for Cath. L ΔEreac: reaction energy of second inhibition step from k3/k4; for Cath. L k3 / Cath. L k4: second inhibition step; for Cath. L k3: forward rate; for Cath. L k4: off-rate; for inhibition at 20 µM: at 20 µM inhibitor, read-out: Cath. L % inh.
T4 sequence (P07711 114-333): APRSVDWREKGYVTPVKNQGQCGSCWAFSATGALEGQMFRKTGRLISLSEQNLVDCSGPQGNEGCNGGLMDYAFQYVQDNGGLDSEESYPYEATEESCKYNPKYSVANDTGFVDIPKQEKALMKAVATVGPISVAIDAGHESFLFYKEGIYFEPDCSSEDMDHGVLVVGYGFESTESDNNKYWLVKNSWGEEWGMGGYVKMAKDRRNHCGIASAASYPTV

Data set [7] has as its target T4, cathepsin L. Briefly: Dilution assay (reversibility), cathepsin L. The settings on record: 5×IC50, 15 min incubation, 50-fold dilution.
Procedure: Then, the mixture was diluted by 50-fold to yield a final inhibitor concentration of 10% of the IC50 concentration.
Fluorometric assays for cathepsin B and cathepsin L (Calbiochem, Merck
Millipore) were performed as described previously.[7,8] Cbz-Phe-Arg-AMC was used as substrate
(final conc.: 100 μM for cathepsin B, 6.5 μM for cathepsin L) in assay buffer (50 mM Tris, pH 6.5,
Recombinantly expressed rhodesain (0.9 mg/mL) or cathepsin L (Calbiochem, Merck Millipore) were
diluted 1:100 in enzyme buffer (rhodesain: 50 mM sodium acetate, pH 5.5, 5 mM EDTA, 200 mM
NaCl and 2 mM DTT; cathepsin L: 50 mM Tris, pH 6.5, 5 mM EDTA, 200 mM NaCl and 2 mM DTT)
and preincubated for 1 h at room temperature. 54 μL of the respective enzyme solution was treated
enzyme-inhibitor reactions were incubated for 15 min at room temperature to ensure complete
inhibition. 1.2 μL of each reaction mixture was diluted with 57.3 μL of the respective assay buffer
(rhodesain: 50 mM sodium acetate, pH 5.5, 5 mM EDTA, 200 mM NaCl, 0.005% Brij; cathepsin L:
Phe-Arg-AMC in DMSO (final conc.: 10 μM for rhodesain, 6.5 μM for cathepsin L) and monitored
with a Tecan Infinite M200 Pro plate reader (λ ex: 380 nm/λ em: 460 nm).
Data set [8] has as its target T2, rhodesain. As to the kind of experiment: Dialysis assay (reversibility), rhodesain. It counts as biochemical. The settings on record: 20×IC50, 30 min preincubation, dialysis up to 120 min.
Data set [9] addresses T2, rhodesain. Briefly: Hydrolysis assay UV-Vis (ester hydrolysis by rhodesain). It counts as biochemical. The protocol:
Since the esters and the free carboxylic acid have different UV-Vis characteristics, we recorded time-dependent absorbance spectra at 400 nm (Figure 9).
Figure 9 Kinetic analysis of the ester hydrolysis by rhodesain. […]
Hydrolysis assay – UV-Vis:
To a solution of rhodesain (10 μg/mL) in 197.5 μL reaction buffer (50 mM sodium acetate, pH 5.5,
as §1

Where [10] appears, read: approximate value, read-out: Ki of initial non-covalent complex, Rhod.
[11] abbreviates: final complex, Dixon fit of vS vs [I], read-out: Rhod. Ki^* Method 2.
Where [12] appears, read: final high-affinity complex, Ki/(1+k3/k4), read-out: Rhod. Ki^* Method 1.
Where [13] appears, read: initial complex, Dixon fit of vi vs [I], read-out: Rhod. Ki Method 2.
The mark [14] stands for this setting: initial non-covalent complex, from kobs vs [I], read-out: Rhod. Ki Method 1.
The mark [15] stands for this setting: reversible, time-dependent inhibition, final high-affinity complex, mean of method 1 and method 2, read-out: Rhod. Ki^*.
[16] abbreviates: approximate value, read-out: Ki of initial non-covalent complex, CathL.
[17] abbreviates: final complex, Dixon fit of vS vs [I], read-out: Cath. L Ki^* Method 2.
The mark [18] stands for this setting: final high-affinity complex, Ki/(1+k3/k4), read-out: Cath. L Ki^* Method 1.
[19] abbreviates: initial complex, Dixon fit of vi vs [I], read-out: Cath. L Ki Method 2.
[20] abbreviates: initial non-covalent complex, from kobs vs [I], read-out: Cath. L Ki Method 1.
Setting [21] is: reversible, time-dependent inhibition, final high-affinity complex, mean of method 1 and method 2, read-out: Cath. L Ki^*.

Values joined by “and” are separate entries in the source; they are usually repeats but may differ in a detail not shown here. Equal entries are not always repeated. “Also recorded” adds a separate entry of the source. Where two headings read alike, the source gives them in different places.

T2 sequence (Q95PM0 entry or part of it): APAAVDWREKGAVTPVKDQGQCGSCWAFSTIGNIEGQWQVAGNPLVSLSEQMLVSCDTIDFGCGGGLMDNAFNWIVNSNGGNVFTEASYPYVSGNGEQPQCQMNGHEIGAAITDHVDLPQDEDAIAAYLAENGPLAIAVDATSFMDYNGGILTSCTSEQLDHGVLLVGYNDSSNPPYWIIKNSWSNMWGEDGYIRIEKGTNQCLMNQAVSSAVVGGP
T3 sequence (P29990 1346-1475): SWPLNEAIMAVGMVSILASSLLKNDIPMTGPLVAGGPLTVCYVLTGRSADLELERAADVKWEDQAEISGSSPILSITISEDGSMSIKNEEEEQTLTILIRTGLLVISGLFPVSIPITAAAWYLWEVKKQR
T3 sequence (P29990 1476-1653): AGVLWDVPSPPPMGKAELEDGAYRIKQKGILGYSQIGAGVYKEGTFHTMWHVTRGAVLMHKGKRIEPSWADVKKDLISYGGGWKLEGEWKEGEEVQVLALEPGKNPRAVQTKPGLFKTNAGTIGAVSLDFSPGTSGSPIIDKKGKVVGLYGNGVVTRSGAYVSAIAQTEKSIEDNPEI

In the case of `CC(C)CC(NC(=O)C(Cc1ccccc1)NC1=C(Cl)C(=O)c2ccccc2C1=O)C(=O)OCc1ccccc1` [Compound 1, Benzyl-N-(3-chloro-1,4-dioxo-1,4-dihydronaphthalen-2-yl)-L-phenylalanyl-L-leucinate], the inhibition at 20 µM in data set [1] worked out at 53%; in [3], 41%. The Ki in data set [2] (read-out: Rhod. Ki) was found to be 2900 nM; in data set [6] (from plots of IC50 vs substrate concentration (Cheng–Prusoff), read-out: Cath. L Ki), 1140 nM. For the same molecule, the “reactivation of enzyme activity after dilution, rhodesain” value (from here on “reactivation … rhodesain”) in data set [4] is reported as 40–50%. The “ester hydrolysis by rhodesain (LC–MS)” value in data set [5] is listed as “rhodesain-catalyzed ester hydrolysis”. In data set [7], the “reactivation of enzyme activity after dilution, cathepsin L” value (shortened to “reactivation … cathepsin L”) is “full reactivation; also recorded: nearly fully recovered”.

For `CC(C)C[C@H](NC(=O)[C@H](Cc1ccccc1)NC1=C(Cl)C(=O)c2ccccc2C1=O)C(=O)O` [Compound 3], the inhibition at 20 µM in data set [1] came out at 25%; in data set [3], 43%. Also, in [2], the “fold improvement of rhodesain inhibition, acid compared to benzyl ester” value is recorded as “ca. 120 fold”. For the same molecule, the Ki was about 60 nM in data set [2] (setting [10]); 36 nM in data set [2] (setting [11]); 11 nM in [2] (setting [12]); 63 nM in [2] (setting [13]); 57 nM in data set [2] (setting [14]); 24 nM in data set [2] (setting [15]). Further, the Ki was about 400 nM in data set [6] (setting [16]); 61 nM in data set [6] (setting [17]); 53 nM in [6] (setting [18]); 345 nM in [6] (setting [19]); 443 nM in data set [6] (setting [20]); 57 nM in [6] (setting [21]). Moreover, the “Rhod. t1/2” value in [2] turned out to be 19.25 min. In addition, the “Rhod. ΔEreac” value in [2] is -0.85 kcal/mol. Moreover, the “Rhod. k3” value in [2] was determined as 0.0025 s⁻¹. In addition, in data set [2], the “Rhod. k4” value turned out to be 0.0006 s⁻¹. For the same molecule, in data set [4], the “reactivation … rhodesain” value is reported as “full reactivation”. In addition, the “recovery of rhodesain activity by dialysis” value (“recovery” below) in data set [8] is listed as “the enzymatic activity was restored”. Moreover, the “fold improvement of cathepsin L inhibition, acid compared to benzyl ester” value in data set [6] (3 compared to ester 1) was 20 fold. Besides, in data set [6], the “Cath. L t1/2” value was determined as 16.5 min. For the same molecule, in [6], the “Cath. L ΔEreac” value was -1.2 kcal/mol. In addition, the “Cath. L k3” value in data set [6] was 0.0052 s⁻¹. Also, the “Cath. L k4” value in [6] was 0.0007 s⁻¹. The “reactivation … cathepsin L” value in [7] is given as “full reactivation”.

Consider `CC(C)C[C@H](NC(=O)[C@H](Cc1ccccc1)NC1=C(C#N)C(=O)c2ccccc2C1=O)C(=O)O` [Compound 4], for which the inhibition at 20 µM in data set [1] came to 45%; in data set [3], 38%. For the same molecule, the “fold improvement of rhodesain inhibition, acid compared to benzyl ester” value in data set [2] is reported as “ca. 1200 fold”. For the same molecule, the Ki in data set [2] (setting [10]) is about 0.4 nM; in data set [2] (setting [11]), 0.2 nM; in data set [2] (setting [12]), 0.1 nM; in data set [2] (setting [13]), 0.32 nM; in data set [2] (setting [14]) it was 0.47 nM; in [2] (setting [15]), ~0.15 nM and 0.15 nM. Moreover, the Ki in [6] (setting [16]) was about 100 nM; in [6] (setting [17]), 15 nM; in data set [6] (setting [18]), 19 nM; in data set [6] (setting [19]), 91 nM; in [6] (setting [20]), 129 nM; in [6] (setting [21]), 17 nM. The “Rhod. t1/2” value in data set [2] turned out to be 19.25 min. In addition, the “Rhod. ΔEreac” value in [2] was -0.89 kcal/mol. In addition, in data set [2], the “Rhod. k3” value came to 0.0027 s⁻¹. Also, the “Rhod. k4” value in data set [2] was 0.0006 s⁻¹. The “reactivation … rhodesain” value in data set [4] is recorded as “full reactivation”. In addition, in [8], the “recovery” value was “the enzymatic activity was restored; also recorded: only slow reactivation”. Moreover, the “Cath. L t1/2” value in data set [6] was 12.8 min. Further, in [6], the “Cath. L ΔEreac” value is -1.1 kcal/mol. Besides, the “Cath. L k3” value in [6] was 0.0051 s⁻¹. For the same molecule, the “Cath. L k4” value in [6] came out at 0.0009 s⁻¹. The “reactivation … cathepsin L” value in [7] is listed as “full reactivation”.

`COC(=O)[C@H](CC(C)C)NC(=O)[C@H](Cc1ccccc1)NC1=C(Cl)C(=O)c2ccccc2C1=O` [Compound 5]: the inhibition at 20 µM in [2] came out at 48%; in data set [6], 45%.

Take `COC(=O)[C@H](CC(C)C)NC(=O)[C@H](Cc1ccccc1)NC1=C(C#N)C(=O)c2ccccc2C1=O` [Compound 6]: the Ki in data set [2] (read-out: Rhod. Ki) turned out to be 1240 nM. Further, the half-life at 250 µM in data set [9] (Trypanosoma brucei rhodesiense, rhodesain enzyme solution, pH 5.5, absorbance at 400 nm vs time, read-out: t1/2 of ester hydrolysis by rhodesain) is 10.2 min. Also, the “turnover curve of absorbance at 400 nm vs. time with rhodesain” value in [9] (monitored for 2 h at 25 °C) is “hyperbolic turnover curves”. In addition, in [6], the inhibition at 20 µM was found to be 40%.

Turning to `CC(C)C[C@H](NC(=O)[C@H](Cc1ccccc1)NC1=C(Cl)C(=O)c2ccccc2C1=O)C(=O)OC(C)(C)C` [Compound 7], the inhibition at 20 µM in [2] was 51%; in [6], 38%.

As for `CC(C)C[C@H](NC(=O)[C@H](Cc1ccccc1)NC1=C(C#N)C(=O)c2ccccc2C1=O)C(=O)OC(C)(C)C` [Compound 8], the results for the inhibition at 20 µM in data set [2] and in [6] were 38% and 21%, respectively.

Take `CN1CCN(C(=O)N[C@@H](Cc2ccccc2)C(=O)N[C@H](/C=C/S(=O)(=O)c2ccccc2)CCc2ccccc2)CC1` [K11777, reference compound]: the “recovery” value in data set [8] was “the enzyme activity could not be recovered”. Also, the “reactivation … cathepsin L” value in data set [7] is reported as “no recovery was observed”.
